Reference: patent US8680159B2, “Bradykinin 1 receptor modulating compounds” (Gruenenthal GmbH, priority 2010, dated 2014)

The compounds below were run against T1, B1R receptor of the rat (CHO K1 cells stably transfected with the B1R gene of the rat) (Rattus norvegicus, UniProt P97583) (assay: Functional study on the bradykinin receptor 1 (B1R), Ca2+ fluorescence (Fluo-4) FLIPR/Novostar assay, rB1R cells). Conditions: CHO-K1, 10 μM, read-out: % Inhibition (r-B1R) at 10 μM.
T1 construct: expressed in transfected cells; host or cells: CHO K1 cells (Chinese hamster ovary), stably transfected
T1 sequence (P97583 1-337): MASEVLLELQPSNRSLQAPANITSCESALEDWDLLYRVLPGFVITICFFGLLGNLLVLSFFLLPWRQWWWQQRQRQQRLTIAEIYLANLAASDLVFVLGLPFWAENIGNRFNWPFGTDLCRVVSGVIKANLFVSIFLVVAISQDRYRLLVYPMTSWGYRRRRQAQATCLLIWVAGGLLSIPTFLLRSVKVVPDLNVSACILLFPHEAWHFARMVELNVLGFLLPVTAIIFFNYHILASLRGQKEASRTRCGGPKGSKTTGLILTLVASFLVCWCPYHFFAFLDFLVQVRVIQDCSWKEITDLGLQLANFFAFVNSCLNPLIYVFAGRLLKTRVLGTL
Assay type: cell-based
In short: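 Ca2+ influx (Fluo-4, peak fluorescence, λex 488/λem 540 nm) was measured in CHO K1 lines expressing rat or human B1R. After a 10 μM test-compound pre-addition scoring % activation, cells received EC80 agonist: Des-Arg9-bradykinin for rat, Lys-Des-Arg9-bradykinin for human. Antagonism was expressed as % of maximum inhibition, with IC50 from varied concentrations.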
Compound CN(C(=O)c1ccc2c(c1)C(NC(=O)Nc1ccc(F)c(Cl)c1)CCO2)C1CCN(c2ccncc2)CC1 (centres unmarked) [CC_H-289, 4-[[(3-Chloro-4-fluoro-phenyl)-carbamoyl]amino]-N-methyl-N-(1-pyridin-4-yl-piperidin-4-yl)-3,4-dihydro-2H-chromene-6-carboxylic acid amide] has an inhibition at 10 µM of 77%. Work on CN(C(=O)NC1CCOc2ccc(C(=O)N(C)C3CCN(c4ccncc4)CC3)cc21)c1ccccc1Cl (centres unmarked) [CC_H-292, 4-[[(2-Chlorophenyl)-methyl-carbamoyl]amino]-N-methyl-N-(1-pyridin-4-yl-piperidin-4-yl)-3,4-dihydro-2H-chromene-6-carboxylic acid amide] yielded an inhibition at 10 µM of 102%. In the case of CC(C)CC(=O)NC1CCOc2ccc(C(=O)N(C)C3CCN(c4ccncc4)CC3)cc21 (centres unmarked) [CC_H-293, N-Methyl-4-(3-methyl-butanoylamino)-N-(1-pyridin-4-yl-piperidin-4-yl)-3,4-dihydro-2H-chromene-6-carboxylic acid amide], the inhibition at 10 µM is reported as 109%. Cc1cc(N2CCC(N(C)C(=O)c3ccc4c(c3)C(NC(=O)c3cc(F)ccc3Cl)CC4)CC2)cc(C)n1 (centres unmarked) [CC_H-294, 3-[(2-Chloro-5-fluoro-benzoyl)amino]-N-[1-(2,6-dimethyl-pyridin-4-yl)-piperidin-4-yl]-N-methyl-2,3-dihydro-1H-indene-5-carboxylic acid amide] was tested, and the inhibition at 10 µM was 111%. Cc1cc(N2CCC(N(C)C(=O)c3ccc4c(c3)C(NC(=O)c3c(F)ccc(C)c3Cl)CC4)CC2)cc(C)n1 (centres unmarked) [CC_H-295, 3-[(2-Chloro-6-fluoro-3-methyl-benzoyl)amino]-N-[1-(2,6-dimethyl-pyridin-4-yl)-piperidin-4-yl]-N-methyl-2,3-dihydro-1H-indene-5-carboxylic acid amide] was tested, and the inhibition at 10 µM was 111%. Work on Cc1cc(N2CCC(N(C)C(=O)c3ccc4c(c3)C(NC(=O)c3cc(Cl)ccc3Cl)CC4)CC2)cc(C)n1 (centres unmarked) [CC_H-296, 3-[(2,5-Dichloro-benzoyl)amino]-N-[1-(2,6-dimethyl-pyridin-4-yl)-piperidin-4-yl]-N-methyl-2,3-dihydro-1H-indene-5-carboxylic acid amide] yielded an inhibition at 10 µM of 112%. Cc1cc(N2CCC(N(C)C(=O)c3ccc4c(c3)C(NC(=O)C3CCCCC3)CC4)CC2)cc(C)n1 (centres unmarked) [CC_H-297, 3-(Cyclohexanecarbonylamino)-N-[1-(2,6-dimethyl-pyridin-4-yl)-piperidin-4-yl]-N-methyl-2,3-dihydro-1H-indene-5-carboxylic acid amide] gave an inhibition at 10 µM of 110%. Compound Cc1cc(N2CCC(N(C)C(=O)c3ccc4c(c3)C(NC(=O)C3CC3)CC4)CC2)cc(C)n1 (centres unmarked) [CC_H-298, 3-(Cyclopropanecarbonylamino)-N-[1-(2,6-dimethyl-pyridin-4-yl)-piperidin-4-yl]-N-methyl-2,3-dihydro-1H-indene-5-carboxylic acid amide] has an inhibition at 10 µM of 101%. Cc1cc(N2CCC(N(C)C(=O)c3ccc4c(c3)C(NC(=O)CC(C)(C)C)CC4)CC2)cc(C)n1 (centres unmarked) [CC_H-299, 3-(3,3-Dimethyl-butanoylamino)-N-[1-(2,6-dimethyl-pyridin-4-yl)-piperidin-4-yl]-N-methyl-2,3-dihydro-1H-indene-5-carboxylic acid amide] was tested, and the inhibition at 10 µM was 110%. COCC(=O)NC1CCc2ccc(C(=O)N(C)C3CCN(c4cc(C)nc(C)c4)CC3)cc21 (centres unmarked) [CC_H-300, N-[1-(2,6-Dimethyl-pyridin-4-yl)-piperidin-4-yl]-3-[(2-methoxy-acetyl)amino]-N-methyl-2,3-dihydro-1H-indene-5-carboxylic acid amide] was tested, and the inhibition at 10 µM was 103%. In the case of Cc1cc(N2CCC(N(C)C(=O)c3ccc4c(c3)C(NS(=O)(=O)Cc3ccccc3C(F)(F)F)CC4)CC2)cc(C)n1 (centres unmarked) [CC_H-302, N-[1-(2,6-Dimethyl-pyridin-4-yl)-piperidin-4-yl]-N-methyl-3-[[[2-(trifluoromethyl)-phenyl]-methylsulfonyl]amino]-2,3-dihydro-1H-indene-5-carboxylic acid amide], the inhibition at 10 µM is reported as 112%.
